According to patent US20160272992A1, “PROTECTION OF PLANTS AGAINST OXIDATIVE STRESS” (priority 2013, published 2016):

Assays:
[1] = test system: Arabidopsis seedlings; test: High-light transfer of seedlings: PSII efficiency (chlorophyll a fluorescence) and leaf appearance; assay type: in vivo, Arabidopsis thaliana
Method: Unless stated otherwise, plants of Arabidopsis thaliana (L.) Heyhn (ecotype Columbia), were grown under long-day conditions (16 hours of light, 8 hours of darkness) at 22° C. on half-strength Murashige and Skoog (MS) germination medium (Murashige and Skoog, 1962). Arabidopsis plants were treated with HU as described by Cools et al. (2011). […] For light treatments, one-week-old seedlings were transferred to continuous high-light conditions (growth rooms kept at 22° C. with 24-hour day/0-hour night cycles and a light intensity of 300-400 μmol m^−2 s^−1) for 2 days, and subsequently retransferred to low-light conditions.
Chlorophyll a fluorescence parameters were measured using the IMAGING PAM M-Series Chlorofyll Fluorescence (Walz) and associated software.

[2] = test system: SIM/SMR promoters; test: SIM/SMR promoter:GUS transcriptional reporter lines; assay type: in vivo, Arabidopsis thaliana
Text: SIM/SMR promoter sequences were amplified from genomic DNA by PCR using the primers described in Table 5. The product fragments were created with the Pfu DNA Polymerase Kit (Promega, Catalog #M7745), and were cloned into a pDONR P4-Plr entry vector by BP recombination cloning and subsequently transferred into the pMK7S*NFml4GW,0 destination vector by LR cloning, resulting in a transcriptional fusion between the promoter of the SMR genes and the nlsGFP-GUS fusion gene (Karimi et al., 2007). For the overexpression constructs, the SMR coding regions were amplified using primers described in Table 5, and cloned into the pDONR221 vector by BP recombination cloning and subsequently transferred into the pK2GW7 destination vector (Kamimi et al., 2002) by LR cloning. All constructs were transferred into the Agrobacterium tumefaciens C58C1RifR strain harboring the pMP90 plasmid. The obtained Agrobacterium strains were used to generate stably transformed Arabidopsis lines with the floral dip transformation method (Clough and Bent, 1998). Transgenic plants were obtained on kanamycin-containing medium and later transferred to soil for optimal seed production.
Complete seedlings or tissue cuttings were stained in multiwell plates (Falcon 3043; Becton Dickinson). GUS assays were performed as described by Beeckman and Engler (1994). Samples mounted in lactic acid were observed and photographed with a stereomicroscope (Olympus BX51 microscope) or with a differential interference contrast (DIC) microscope (Leica).
To confirm involvement of SIM/SMR genes in the genotoxic stress response, transcriptional reporter lines containing the putative upstream promoter sequences were constructed for all. After selection of representative reporter lines, one-week-old seedlings were transferred to control medium, or medium supplemented with HU (resulting into stalled replication forks) or bleomycin (causing DSBs).

[3] = test system: ZmSMRg and ZmSMRh; test: qRT-PCR of maize SMR genes after HU treatment; assay type: in vivo; settings: root tips and leaves

## NC(=O)NO [HU, hydroxyurea]
[1]; one-week-old seedlings, 48 hours high light, in the presence of HU vs absence
  maximum quantum efficiency of PSII (F′v/F′m): decrease was even more pronounced
[1]; plants grown in the presence of HU, within 48 hours after transfer
  anthocyanin accumulation after transfer to high light: accumulated anthocyanins in the young leaf tissue
[2]; one-week-old seedlings, 1 mM HU, GUS assay 24 hours after transfer
  transcriptional induction of SMR4, SMR5 and SMR7 reporters in the root meristem: strong transcriptional induction
[2]; treated for 24 hours
  induction of SMR5 and SMR7 GUS reporters in the proliferating leaf: induced
[3]
  transcriptional induction of maize SMR genes ZmSMRg and ZmSMRh: strong up-regulation
